# According to PMC11019746 (ACS Pharmacology & Translational Science, 2024):
# Tests used:
# hY2R = biological target: T1, hY2R (Homo sapiens, UniProt P49146); assay: Y2R radioligand competition binding, whole CHO-hY2R cells, [3H]propionyl-pNPY; conditions: read-out: pKi ± SEM hY2R (converted)
# T1 construct: host or cells: CHO
# T1 sequence (P49146 1-381): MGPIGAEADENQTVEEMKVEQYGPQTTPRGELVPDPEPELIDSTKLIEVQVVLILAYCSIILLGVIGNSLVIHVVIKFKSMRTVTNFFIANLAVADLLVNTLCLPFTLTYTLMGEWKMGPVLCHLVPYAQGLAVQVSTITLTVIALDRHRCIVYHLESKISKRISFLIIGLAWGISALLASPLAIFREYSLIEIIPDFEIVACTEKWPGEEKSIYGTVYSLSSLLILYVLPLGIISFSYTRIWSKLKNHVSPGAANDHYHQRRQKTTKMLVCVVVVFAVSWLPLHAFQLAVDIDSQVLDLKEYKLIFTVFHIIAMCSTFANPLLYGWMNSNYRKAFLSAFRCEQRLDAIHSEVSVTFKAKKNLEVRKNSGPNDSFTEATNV
# Experimental: (§1) All radioligand binding assays were performed at intact Y receptor expressing cells at 23 ± 2 °C.
# hY4R [1] = biological target: T2, hY4R (Homo sapiens, UniProt P50391); assay: Y4R Ca2+ aequorin assay (CHO-hY4R-Gqi5-mtAEQ cells); type: cell-based; design: expressed in transfected cells; host or cells: CHO (co-expressing Gqi5 and mitochondrially targeted aequorin)
# T2 sequence (P50391 whole entry): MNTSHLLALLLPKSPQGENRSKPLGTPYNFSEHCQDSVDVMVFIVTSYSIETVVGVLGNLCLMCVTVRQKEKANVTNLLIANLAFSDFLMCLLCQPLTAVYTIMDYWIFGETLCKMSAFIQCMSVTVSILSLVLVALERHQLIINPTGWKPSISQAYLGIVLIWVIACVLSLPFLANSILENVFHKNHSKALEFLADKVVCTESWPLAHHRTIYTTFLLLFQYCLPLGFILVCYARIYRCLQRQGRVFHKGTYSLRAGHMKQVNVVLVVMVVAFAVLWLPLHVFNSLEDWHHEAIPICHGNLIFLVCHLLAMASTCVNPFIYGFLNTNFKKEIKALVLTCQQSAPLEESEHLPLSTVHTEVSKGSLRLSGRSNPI
# Experimental: The assay was performed with live CHO-hY4R-Gqi5-mtAEQ cells as previously described (used buffer: buffer III). Measurements were carried out on a Tecan Infinite Lumi plate reader. Data analysis was performed as reported using GraphPad Prism 5 for the calculation of the area under the curve. […] Efficacies Emax correspond to the upper plateaus of the normalized concentration–response curves.
# hY5R = biological target: T3, hY5R (Homo sapiens, UniProt Q15761); assay: Y5R radioligand competition binding, whole HEC-1B-hY5R cells, [3H]propionyl-pNPY; conditions: [3H]propionyl-pNPY c = 5 nM, read-out: pKi ± SEM hY5R (converted)
# T3 construct: expressed in transfected cells; host or cells: HEC-1B (human endometrial cancer)
# T3 sequence (Q15761 1-445): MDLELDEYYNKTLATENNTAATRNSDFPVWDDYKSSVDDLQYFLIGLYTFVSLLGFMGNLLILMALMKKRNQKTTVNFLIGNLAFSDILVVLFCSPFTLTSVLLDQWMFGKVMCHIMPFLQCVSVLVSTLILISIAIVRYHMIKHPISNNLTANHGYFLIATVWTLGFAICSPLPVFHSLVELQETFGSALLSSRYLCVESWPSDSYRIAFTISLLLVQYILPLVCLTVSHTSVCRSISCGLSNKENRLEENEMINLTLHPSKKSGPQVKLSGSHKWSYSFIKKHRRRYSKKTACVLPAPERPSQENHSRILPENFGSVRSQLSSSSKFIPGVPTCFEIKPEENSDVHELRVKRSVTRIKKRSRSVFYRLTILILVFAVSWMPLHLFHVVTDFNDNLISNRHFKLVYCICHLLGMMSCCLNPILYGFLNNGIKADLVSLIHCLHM
# Experimental: as §1
# (§2) (logarithmic form in the case of pKi values).
# hY1R = biological target: T4, hY1R (Homo sapiens, UniProt P25929); assay: Y1R radioligand competition binding, whole SK-N-MC cells, [3H]UR-MK299; conditions: SK-N-MC neuroblastoma cells, [3H]UR-MK299 c = […]; read-out: pKi ± SEM hY1R (converted)
# T4 construct: host or cells: SK-N-MC neuroblastoma cells
# T4 sequence (P25929 1-384): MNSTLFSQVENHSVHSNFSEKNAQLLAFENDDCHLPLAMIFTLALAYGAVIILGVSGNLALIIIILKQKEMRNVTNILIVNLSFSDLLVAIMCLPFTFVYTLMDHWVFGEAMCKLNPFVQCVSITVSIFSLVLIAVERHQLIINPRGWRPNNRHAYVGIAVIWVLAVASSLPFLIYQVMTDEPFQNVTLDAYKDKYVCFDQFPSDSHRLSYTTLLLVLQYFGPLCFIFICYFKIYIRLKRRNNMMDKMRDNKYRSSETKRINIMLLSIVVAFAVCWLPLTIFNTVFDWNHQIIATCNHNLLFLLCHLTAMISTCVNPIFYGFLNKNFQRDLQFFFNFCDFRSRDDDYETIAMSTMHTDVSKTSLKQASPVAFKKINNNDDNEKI
# Experimental: as §1
# Competition binding assays at Y1R-expressing SK-N-MC neuroblastoma cells were performed as previously described using [^3H]UR-MK299 as radioligand (concentration: 0.15 nM).[33] […] (logarithmic form in the case of pKi values).
# hY4R [2] = biological target: T2, hY4R; assay: Y4R radioligand competition binding, whole CHO-hY4R-Gqi5-mtAEQ cells, [3H]UR-KK200; design: expressed in transfected cells; host or cells: CHO (co-expressing Gqi5 and mitochondrially targeted aequorin); conditions: [3H]UR-KK200 c = 1 nM, read-out: pKi ± SEM hY4R (converted)
# Experimental: as §1, §2
# Y4R = Y4R (Homo sapiens, UniProt P50391); assay: Y4R miniGsi recruitment assay (HEK293T-NlucN-mGsi/Y4R-NlucC cells); type: cell-based; design: expressed in transfected cells; host or cells: HEK293T; conditions: read-out: miniGsi recruitment Emax ± SEM; also: relative to 1 µM hPP (100%)
# Chain of Y4R (P50391 whole entry): as the sequence (P50391 whole entry) above
# Experimental: Furimazine was used as nanoluciferase substrate. The original stock was diluted 1:1000 in L15-HEPES to obtain the feed solution for the assay. Data analysis was performed based on the areas under the curves (time window: 45 min starting with the agonist addition) using GraphPad Prism 5. […] Efficacies Emax correspond to the upper plateaus of the normalized concentration–response curves.
smiles,measurement,setting,value
Cc1cc(/C=C/C=C/c2ccc(N(C)C)cc2)cc(C)[n+]1CCCn1cc(CCCCNC(=O)N=C(N)NCCC[C@@H]2NC(=O)CCC(=O)NCCCCNC(=O)N=C(N)NCCC[C@@H](C(=O)N[C@@H](CC(C)C)C(=O)N[C@@H](CCCNC(=N)N)C(=O)N[C@@H](Cc3ccc(O)cc3)C(N)=O)NC(=O)[C@H](Cc3ccc(O)cc3)NC2=O)nn1 [Compound 19],Ki,hY2R,> 1000 nM
same,EC50,"hY4R [1]; CHO-hY4R-Gqi5-mtAEQ cells, agonist mode, read-out: Ca2+-aequorin pEC50 ± SEM (converted)",56.2 nM
same,Emax,hY4R [1]; read-out: Ca2+-aequorin Emax ± SEM,64 ± 2%
same,Ki,hY5R,> 1000 nM
same,Ki,hY1R,> 1000 nM
same,Ki,hY4R [2],0.603 nM
same,Emax,Y4R,43 ± 1%
